Where two headings read alike, the source gives them in different places.
Legend:
rumen fluid = experiment: In vitro rumen fluid fermentation assay (Gas Test), methane by gas chromatography; format: cell-based, cows; conditions: for Synergistic effect in methane inhibition: combined with iodoform
Protocol: Various samples of single species, extracts, two-species combinations, and three-species combinations were assessed for their potential to inhibit methane production. This evaluation was carried out using in vitro fermentation assays known as Gas Tests. In each Gas Test, 250 mg of total meal ration (TMR) comprising 30% grass, 30% corn, and 40% complete feed was introduced into 100 ml serum vials as the substrate for the fermentation process. Rumen fluid, obtained from fistulated cows at the University of Reading, was mixed with degassed reaction buffer (1.6 L) and supplemented with Na2S (82 ml). Subsequently, 30 ml of the rumen fluid/buffer mixture was added to each serum vial.
The test substances were dissolved in 100% ethanol, and 100 μl of each test substance was added to the serum vials containing the rumen fluid/buffer mixture. All test substances and controls were examined in triplicate for each experiment. Once the test substances and controls were added, the vials were sealed with butyl rubber stoppers and aluminium crimps, then incubated at 39° C. for 24 hours. Following incubation, gas samples were collected from both the control and test vials, and methane levels were determined using gas chromatography.
For each test compound, the “percentage inhibition of methane produced” was calculated using the following formula: […]
The test substances underwent evaluation in three independent Gas Tests, and an average percentage inhibition was calculated for each substance.
Synergy between substances was determined using the Bliss Independence Model using the following equation: […]
Where IAB is the predicted percentage methane inhibition of both substances together and IA and IB are the observed percentage methane inhibitions of the individual substances. The predicted percentage methane inhibition of both substances (IAB) and the observed percent methane inhibition of both substances (Iob) are used to calculate the Combination index (Ci) as follows:
If the Ci<1 then the two substances are synergistic.
Synergy between substances was determined using the following calculation:
Where IABC is the predicted percentage methane inhibition of the three substances together and IA, IB and IC are the observed percentage methane inhibitions of the individual substances.
The predicted percentage methane inhibition of the three substances (IABC) and the observed percent methane inhibition of the combination of the three substances (Iob) are used to calculate the Combination index (Ci) as follows: […]

[1] = system: Methanococcus maripaludis; experiment: Inhibition of methane production by Methanococcus maripaludis culture (pressure drop after 24 h); format: cell-based; conditions: for Inhibition of methane production by bromoform on its own: bromoform alone at 0.12 μM (very low concentration); for Fold increase of Compound X combined with bromoform as compared to Compound X alone: bromoform 0.12 μM
Protocol: For this experiment, bromoform was prepped at 100 mM by adding 8.75 μl bromoform to 991 μl DMSO. This was diluted 10× to generate a 10 mM solution and further diluted to generate 0.12 mM stock solutions. Compound X stock solutions were prepared in DMSO (except for tannic acid, which was diluted in deionized water), to achieve the desired stock solutions required for testing. The experiment was set up by adding 5 ml of M141 medium (https://www.dsmz.de/microorganisms/medium/pdf/DSMZ_Medium141.pdf) to a screw cap Hungate tube followed by the addition of 5 μl Compound X and/or 5 μl bromoform or 5/10 μl DMSO as follows: • Tube 1: DMSO (10 μl) • Tube 2: Bromoform (5 μl, 0.120 mM) (120 nM final)+5 μl DMSO • Tube 3: Compound X (5 μl stock solution)+5 μl DMSO • Tube 4: Bromoform (5 μl 0.120 mM) (120 nM final)+Compound X (5 μl stock solution)
The concentration of Bromoform was fixed at 0.12 μM.
After the addition of the test substances, 500 μl of an overnight M. maripaludis culture was added to each reaction tube. Each tube was gassed with 80% H2/20% CO2 to 240 kPa and incubated at 37° C. for 24 h.
After the 24 h incubation the pressure inside the tube was measured using a manometer. Given that 5 moles of H2/CO2 are consumed to generate 1 mole of CH4 the drop in pressure observed was used to calculate the amount of methane by the control and test reactions from which a percent inhibition was calculated.
Table 1 below summarises the range of concentrations and the fold increase in inhibition of Compound X when tested with bromoform relative to the level of inhibition for Compound X when tested alone.

[2] = Bos taurus, 24 h, read-out: Average of observed methane inhibition (%)
[3] = Bos taurus, sole compound, 25 μM, 24 h, three Gas Tests, read-out: Average of observed methane inhibition (%)

BrC(Br)Br [Bromoform, bromoform]
inhibition at 0.1 µM (rumen fluid; [2]): 1.3%
inhibition at 1 µM (rumen fluid; [2]): 92.4%
Inhibition of methane production by bromoform on its own [1]: too low to inhibit methanogen on its own
Inhibition of methane production by bromoform on its own ([1]; listed as bromoform): does not reduce or inhibit methane production

C=CCSSCC=C [Diallyl disulfide, diallyl disulfide]
inhibition at 25 µM (rumen fluid; [2]): 5%
Methane inhibition in combination with Bromoform (%) ([1]; Compound X 15.6 μM-250 μM (range tested) + bromoform 0.12 μM, 24 h): 88.8%
Fold increase of Compound X combined with bromoform as compared to Compound X alone ([1]; Compound X 15.6 μM-250 μM (range tested)): 88.8 fold
inhibition at 15.6 µM ([1]; Methanococcus maripaludis, 24 h, read-out: Methane inhibition of Compound X as a sole compound (%)): 1%

C=CCSSSCC=C [Diallyl trisulfide, diallyl trisulfide]
inhibition at 25 µM (rumen fluid; [3]): 11%
Synergistic effect in methane inhibition (rumen fluid): synergistic effects were observed
Methane inhibition in combination with Bromoform (%) ([1]; Compound X 125 μM + bromoform 0.12 μM, 24 h): 27.1%
Fold increase of Compound X combined with bromoform as compared to Compound X alone ([1]; Compound X 125 μM): 27.1 fold
inhibition at 125 µM ([1]; Methanococcus maripaludis, Compound X 125 μM alone, 24 h, read-out: Methane inhibition of Compound X as a sole compound (%)): 1%

BrCBr [Dibromomethane, dibromomethane]
inhibition at 0.5 µM (rumen fluid; [2]): 14.5%
inhibition at 10 µM (rumen fluid; [2]): 99%
Synergistic effect in methane inhibition (rumen fluid): synergistic effects were observed

CCCSSCCC [Dipropyl disulfide, dipropyl disulfide]
inhibition at 30 µM (rumen fluid; Bos taurus, sole compound, 30 μM, 24 h, three Gas Tests, read-out: Average of observed methane inhibition (%)): 3%
Synergistic effect in methane inhibition (rumen fluid): synergistic effects were observed
Methane inhibition in combination with Bromoform (%) ([1]; Compound X 1 mM + bromoform 0.12 μM, 24 h): 43.5%
Fold increase of Compound X combined with bromoform as compared to Compound X alone ([1]; Compound X 1 mM): 1.57 fold
inhibition at 1000 µM ([1]; Methanococcus maripaludis, Compound X 1 mM alone, 24 h, read-out: Methane inhibition of Compound X as a sole compound (%)): 27.7%

IC(I)I [Iodoform, iodoform]
inhibition at 2 µM (rumen fluid; Bos taurus, sole compound, 2 μM, 24 h, three Gas Tests, read-out: Average of observed methane inhibition (%)): 40.8%
inhibition at 10 µM (rumen fluid; Bos taurus, sole compound, 10 μM, 24 h, three Gas Tests, read-out: Average of observed methane inhibition (%)): 98.3%

O=C1C[C@@H](c2ccc(O)cc2)Oc2cc(O)cc(O)c21 [Naringenin]
inhibition at 100 µM (rumen fluid; Bos taurus, sole compound, 100 μM, 24 h, three Gas Tests, read-out: Average of observed methane inhibition (%)): 10%
Synergistic effect in methane inhibition (rumen fluid): synergistic effects were observed
Methane inhibition in combination with Bromoform (%) ([1]; Compound X 100 μM + bromoform 0.12 μM, 24 h): 90.3%
Fold increase of Compound X combined with bromoform as compared to Compound X alone ([1]; Compound X 100 μM): 90.3 fold
inhibition at 100 µM ([1]; Methanococcus maripaludis, Compound X 100 μM alone, 24 h, read-out: Methane inhibition of Compound X as a sole compound (%)): 1%

CCCCCCC(C=O)=Cc1ccccc1 [α-Hexylcinnamaldehyde]
inhibition at 25 µM (rumen fluid; [3]): 8%
Synergistic effect in methane inhibition (rumen fluid): synergistic effects were observed
Methane inhibition in combination with Bromoform (%) ([1]; Compound X 31.25 μM + bromoform 0.12 μM, 24 h): 97.2%
Fold increase of Compound X combined with bromoform as compared to Compound X alone ([1]; Compound X 31.25 μM): 97.2 fold
inhibition at 31.25 µM ([1]; Methanococcus maripaludis, Compound X 31.25 μM alone, 24 h, read-out: Methane inhibition of Compound X as a sole compound (%)): 1%
